Data from patent US20100261662A1, “UTILIZATION OF MURAL THROMBUS FOR LOCAL DRUG DELIVERY INTO VASCULAR TISSUE” (ENDOLOGIX, INC., priority 2009, published 2010).

Experiments:
[1] = test system: collagen contained within the vascular tissue; test: Short-term application of catechin to vascular tissue; conditions: short-term (approximately 10-30 minute) application
Description: Catechin can be delivered in solution form into the mural thrombus. This delivery method pathway can be used, without limitation, when a short-acting application of a high-concentration of catechin is desired. […] In some embodiments, the concentration of the agent can be in the range from approximately 0.01% to approximately 20%, or between approximately 2.0% and approximately 10.0%, or to or from any values within these ranges.

skin collagen = conditions: rats treated with catechin; cited from earlier work

catechin
stabilization of collagen in vascular tissue [1]: can stabilize the collagen
stability of skin collagen against enzymatic degradation (skin collagen): stable against enzymatic degradation
